Measurements published in BindingDB's records for PubMed 34998058 (Central South University, 2022).
pIC50: −log10 of the molar value. Values belong to the compound of their own block, whether it stands above or below them.

Legend:
[1] = Inhibition of P-gp in human K562 cells assessed as adriamycin IC50 at 10 ug/ml
[2] = Inhibition of P-gp in human K562/A02 cells assessed as adriamycin IC50 at 4 ug/ml
[3] = Inhibition of P-gp in human K562 cells assessed as adriamycin IC50 at 6 ug/ml
[4] = Inhibition of P-gp in human K562/A02 cells assessed as adriamycin IC50 at 8 ug/ml
[5] = Inhibition of P-gp in human K562/A02 cells assessed as adriamycin IC50 at 6 ug/ml
[6] = Inhibition of P-gp in human K562/A02 cells assessed as adriamycin IC50 at 2 ug/ml
[7] = Inhibition of P-gp in human K562/A02 cells assessed as adriamycin IC50 at 10 ug/ml
[8] = Inhibition of P-gp in human K562 cells assessed as adriamycin IC50 at 2 ug/ml
[9] = Inhibition of P-gp in human K562 cells assessed as adriamycin IC50 at 8 ug/ml
[10] = Inhibition of P-gp in human K562 cells assessed as adriamycin IC50 at 4 ug/ml
Maltase-glucoamylase = Maltase-glucoamylase (Homo sapiens, UniProt O43451); test: Inhibition of alpha-glucosidase (unknown origin)
Sequence of Maltase-glucoamylase (O43451 whole entry): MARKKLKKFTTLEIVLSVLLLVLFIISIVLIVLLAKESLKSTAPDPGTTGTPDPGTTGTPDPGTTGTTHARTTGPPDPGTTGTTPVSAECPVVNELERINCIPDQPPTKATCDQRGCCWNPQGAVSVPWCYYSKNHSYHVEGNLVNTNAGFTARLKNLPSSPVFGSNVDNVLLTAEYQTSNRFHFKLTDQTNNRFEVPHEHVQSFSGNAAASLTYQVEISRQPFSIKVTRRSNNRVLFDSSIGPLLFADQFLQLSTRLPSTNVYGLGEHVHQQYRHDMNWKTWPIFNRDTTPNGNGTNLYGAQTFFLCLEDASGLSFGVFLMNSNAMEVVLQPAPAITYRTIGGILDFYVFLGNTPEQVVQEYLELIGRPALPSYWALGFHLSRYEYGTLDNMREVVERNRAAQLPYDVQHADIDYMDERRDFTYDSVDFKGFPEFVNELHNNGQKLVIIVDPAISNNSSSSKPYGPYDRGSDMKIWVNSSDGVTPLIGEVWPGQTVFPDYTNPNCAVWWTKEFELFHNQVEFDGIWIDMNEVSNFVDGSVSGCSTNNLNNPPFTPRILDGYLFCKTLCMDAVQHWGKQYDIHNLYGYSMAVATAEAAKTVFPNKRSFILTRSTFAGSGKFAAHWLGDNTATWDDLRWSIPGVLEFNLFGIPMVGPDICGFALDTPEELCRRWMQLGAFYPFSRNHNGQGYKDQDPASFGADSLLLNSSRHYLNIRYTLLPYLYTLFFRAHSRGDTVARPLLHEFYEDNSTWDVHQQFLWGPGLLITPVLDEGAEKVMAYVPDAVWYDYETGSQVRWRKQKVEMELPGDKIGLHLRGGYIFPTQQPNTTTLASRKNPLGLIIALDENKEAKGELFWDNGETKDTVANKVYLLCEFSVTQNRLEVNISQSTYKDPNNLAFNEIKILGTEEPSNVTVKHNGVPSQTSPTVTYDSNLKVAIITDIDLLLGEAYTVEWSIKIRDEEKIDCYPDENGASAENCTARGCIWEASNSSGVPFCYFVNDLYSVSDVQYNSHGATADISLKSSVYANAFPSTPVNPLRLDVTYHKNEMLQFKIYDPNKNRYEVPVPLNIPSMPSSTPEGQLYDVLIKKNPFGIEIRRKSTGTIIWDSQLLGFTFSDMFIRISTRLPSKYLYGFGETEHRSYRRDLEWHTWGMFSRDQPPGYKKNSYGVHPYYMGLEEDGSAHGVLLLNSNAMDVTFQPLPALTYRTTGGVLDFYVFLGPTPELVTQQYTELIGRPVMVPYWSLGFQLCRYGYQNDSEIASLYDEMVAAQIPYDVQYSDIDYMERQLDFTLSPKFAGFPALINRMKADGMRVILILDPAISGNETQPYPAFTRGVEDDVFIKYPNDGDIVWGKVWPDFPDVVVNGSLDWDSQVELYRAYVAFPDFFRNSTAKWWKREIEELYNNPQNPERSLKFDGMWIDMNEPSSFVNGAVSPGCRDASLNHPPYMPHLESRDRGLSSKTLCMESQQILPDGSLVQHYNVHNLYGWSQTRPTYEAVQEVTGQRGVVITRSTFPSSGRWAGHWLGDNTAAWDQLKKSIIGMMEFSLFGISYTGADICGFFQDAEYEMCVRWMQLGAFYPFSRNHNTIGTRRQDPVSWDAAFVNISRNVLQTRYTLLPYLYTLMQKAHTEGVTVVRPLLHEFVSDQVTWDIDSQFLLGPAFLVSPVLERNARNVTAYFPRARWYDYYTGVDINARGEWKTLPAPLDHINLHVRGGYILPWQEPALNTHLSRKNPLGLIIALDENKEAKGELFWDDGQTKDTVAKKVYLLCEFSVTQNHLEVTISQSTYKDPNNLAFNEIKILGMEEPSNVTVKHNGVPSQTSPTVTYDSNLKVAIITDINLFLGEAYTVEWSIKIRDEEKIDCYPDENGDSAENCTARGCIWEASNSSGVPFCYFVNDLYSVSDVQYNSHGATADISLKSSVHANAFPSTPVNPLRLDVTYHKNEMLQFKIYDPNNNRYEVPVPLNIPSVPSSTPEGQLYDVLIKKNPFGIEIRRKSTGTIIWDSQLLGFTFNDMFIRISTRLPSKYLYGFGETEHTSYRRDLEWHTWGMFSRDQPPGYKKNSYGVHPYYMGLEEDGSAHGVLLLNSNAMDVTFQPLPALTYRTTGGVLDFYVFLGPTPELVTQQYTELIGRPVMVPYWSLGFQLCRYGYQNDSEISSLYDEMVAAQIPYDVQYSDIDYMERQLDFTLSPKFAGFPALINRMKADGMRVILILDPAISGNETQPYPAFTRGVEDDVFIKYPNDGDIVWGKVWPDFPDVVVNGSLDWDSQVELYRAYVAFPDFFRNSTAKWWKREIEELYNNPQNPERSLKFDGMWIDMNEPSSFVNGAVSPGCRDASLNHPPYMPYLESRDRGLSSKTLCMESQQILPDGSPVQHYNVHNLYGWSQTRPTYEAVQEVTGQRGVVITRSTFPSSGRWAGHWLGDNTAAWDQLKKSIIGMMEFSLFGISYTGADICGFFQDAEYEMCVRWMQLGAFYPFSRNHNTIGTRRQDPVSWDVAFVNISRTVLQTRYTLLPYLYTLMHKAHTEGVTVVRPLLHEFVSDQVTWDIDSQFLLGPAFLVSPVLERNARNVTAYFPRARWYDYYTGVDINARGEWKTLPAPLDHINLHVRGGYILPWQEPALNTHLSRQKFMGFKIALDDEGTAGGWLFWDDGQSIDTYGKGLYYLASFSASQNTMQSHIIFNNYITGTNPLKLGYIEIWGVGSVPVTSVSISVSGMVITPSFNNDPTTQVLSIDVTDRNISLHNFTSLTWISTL

Structure (SMILES): COc1ccc(C(=O)Nc2cccc(C(=O)/C=C3/Nc4ccccc4NC3=O)c2)cc1
pIC50 (Maltase-glucoamylase): 3.78

Structure (SMILES): O=C(/C=C/c1ccccc1)/C=C1/Nc2ccccc2NC1=O
pIC50 (Maltase-glucoamylase): 4.40

Structure (SMILES): COc1ccc(C2SCC(=O)N2c2ccc3nc(Cc4ccc(O)cc4)c(=O)[nH]c3c2)cc1 (centres undefined)
pIC50 (Maltase-glucoamylase): 3.56

Structure (SMILES): CC(C)c1nc2ccc(N3C(=O)CSC3c3ccc([N+](=O)[O-])cc3)cc2[nH]c1=O (centres undefined)
pIC50 (Maltase-glucoamylase): 3.52

Structure (SMILES): O=c1[nH]c2ccccc2n2c(-c3ccc([N+](=O)[O-])cc3[N+](=O)[O-])ccc12
pIC50 (Maltase-glucoamylase): 4.64

Structure (SMILES): Cc1ccc(NC(=O)Cn2c(=O)c(C)nc3ccccc32)c([N+](=O)[O-])c1
pIC50 (Maltase-glucoamylase): 4.08

Structure (SMILES): Cc1nc2ccccc2n(CC(=O)N/N=C/c2ccc(OCCn3cc(CN4CCOCC4)nn3)cc2)c1=O
pIC50 (Maltase-glucoamylase): 4.38

Structure (SMILES): Cc1nc2ccccc2n(CC(=O)N/N=C/c2ccc(OCCn3cc(CN4CCCCC4)nn3)cc2)c1=O
pIC50 (Maltase-glucoamylase): 4.37

Structure (SMILES): Cc1nc2ccccc2n(CC(=O)N/N=C/c2ccc(OCCn3cc(CN4CCCC4)nn3)cc2)c1=O
pIC50 (Maltase-glucoamylase): 4.34

Structure (SMILES): Cc1ccc(-n2cc(COc3ccc(/C=N/NC(=O)Cn4c(=O)c(C)nc5ccccc54)cc3)nn2)cc1
pIC50 (Maltase-glucoamylase): 4.32

More lines, now with the values ahead:

pIC50 [1]: 6.16 | pIC50 [2]: 4.82 | pIC50 [3]: 6.29 | pIC50 [4]: 5.05 | pIC50 [5]: 4.98 | pIC50 [6]: 4.70 | pIC50 [7]: 5.11 | pIC50 [8]: 6.10 | pIC50 [9]: 6.13 | pIC50 [10]: 6.13
Structure (SMILES): Cc1ccc2[nH]c(=O)c(C)nc2c1

pIC50 [1]: 6.25 | pIC50 [2]: 5.04 | pIC50 [3]: 6.08 | pIC50 [4]: 5.24 | pIC50 [5]: 5.12 | pIC50 [6]: 4.89 | pIC50 [7]: 5.20 | pIC50 [8]: 6.11 | pIC50 [9]: 6.14 | pIC50 [10]: 6.17
Structure (SMILES): Cc1nc2cc(F)ccc2[nH]c1=O

pIC50 (Maltase-glucoamylase): 5.00
Structure (SMILES): O=c1[nH]c2ccccc2nc1N/N=C/c1cccs1

pIC50 (Maltase-glucoamylase): 4.86
Structure (SMILES): COc1cccc(/C=N/Nc2nc3ccccc3[nH]c2=O)c1

pIC50 (Maltase-glucoamylase): 4.89
Structure (SMILES): O=c1[nH]c2ccccc2n2c(-c3ccc(O)cc3O)ccc12

pIC50 (Maltase-glucoamylase): 4.89
Structure (SMILES): O=c1[nH]c2ccccc2n2c(-c3ccc(Cl)c(Cl)c3)ccc12
